The record followed here is US7312188B2, “Peptide derivatives having β-secretase inhibitory activity” (priority 2003, dated 2007).

One may read the inhibition as the share of the control response that was lost under treatment.

Numbered stars: 1 amine (or outer) side, 2 acyl side, 3 side chain; on linkers, the order of the positions; unused ones are H or OH. Square brackets hold non-standard residues; d marks the D form. Peptide text beside a SMILES is read from it. * marks the point of attachment. β3hPhe(2R-OH) = O=C([C@H](O)[C@H](Cc1ccccc1)N[*:1])[*:2]; 4Amb = NCc1ccc(C(=O)O)cc1; X1 = O=C(c1ccc(O)c(O)c1)*; Dap = NC[C@H](N)C(=O)O

T1 sequence (P56817 22-460 limits assumed): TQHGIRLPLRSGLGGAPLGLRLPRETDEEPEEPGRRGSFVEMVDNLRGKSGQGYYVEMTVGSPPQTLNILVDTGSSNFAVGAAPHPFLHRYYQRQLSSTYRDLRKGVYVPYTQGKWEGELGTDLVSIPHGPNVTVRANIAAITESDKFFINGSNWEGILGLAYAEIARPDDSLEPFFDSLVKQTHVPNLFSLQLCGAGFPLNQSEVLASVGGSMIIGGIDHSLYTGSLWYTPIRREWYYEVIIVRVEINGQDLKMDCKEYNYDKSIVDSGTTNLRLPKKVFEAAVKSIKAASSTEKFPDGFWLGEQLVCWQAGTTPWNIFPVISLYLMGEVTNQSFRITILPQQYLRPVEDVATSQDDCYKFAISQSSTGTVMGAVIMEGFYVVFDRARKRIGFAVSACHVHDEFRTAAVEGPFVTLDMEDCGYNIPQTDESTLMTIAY

This assay has as its target T1, recombinant human BACE-1 (rhBACE-1) (Homo sapiens, UniProt P56817).
T1 construct: expressed as only an extracellular region (amino acid 1-460 residues) of recombinant human β-secretase; His tag (C); purchased R&D systems (Minneapolis, Minn.); host or cells: murine myeloma cell line NS0
As to the kind of experiment: BACE1 inhibitory activity, reverse phase HPLC quantitation of N-terminal fragment of fluorogenic substrate. The note with it: 1 μL of inhibitor solution in DMSO (100 μM) in 50 μL reaction; MES buffer pH 5.0; 37° C., 60 minutes. The class given is biochemical. The source says: Experiment Regarding Measurement of BACE1 Inhibitory Activity
Enzyme Used in Measurement
As an enzyme having β-secretase activity, recombinant human BACE-1 (rhBACE-1) purchased from R&D systems (Minneapolis, Minn.) was used. rhBACE-1 is expressed as only an extracellular region (amino acid 1-460 residues) of recombinant human β-secretase, with a His tag at its carboxyl terminal in murine myeloma cell line, NS0. Purified secreted rhBACE1 is a mixture of a pro entity (about 75 kDa) and a mature entity (about 72 kDa).
Assessment of Enzyme Inhibitory Activity
Enzyme inhibitory activity of an inhibitor was assessed by quantitating an N-terminal fragment produced aftercleaving the substrate with BACE1 by reverse HPLC using (7-methoxycoumarin-4-yl)acetyl-[…]2,4-dinitrophenyl)-Arg-Arg-NH2 purchased from Peptide Institute (Osaka, Japan) as a substrate for BACE1. To 40 μL of 62.5 mM 2-(N-morpholino)ethansulfonic acid (MES)-CH3COOH—NaOH buffer (pH 5.0), were added 1 μL of a solution of an inhibitor diluted with DMSO (100 μM), 4 μL of rhBACE-1 (6.25 ng/μL), and 5 μL of an aqueous solution (50% DMSO) of 250 μM substrate (7-methoxycoumarin-4-yl)acetyl-[…]2,4-dinitrophenyl)-Arg-Arg-NH2 to initiate an enzyme reaction. After incubation at 37° C. for 60 minutes, 20 μL of 20% trichloroacetic acid was added to stop the reaction. And, inhibition % was calculated by measuring a fluorescent intensity of the N-terminal fragment (Ex, 328 nm; Em, 393 nm) using reverse phase HPLC (linear gradient of MeCN in aqueous TFA; flow rate, 1.0 mL/min).
BACE1 Inhibitory Activity
Enzyme inhibitory activity of an inhibitor was assessed by quantitating a N-terminal fragment produced after cleavage of a substrate with BACE1 by reverse phase HPLC using (7-methoxycoumarin-4-yl)acetyl-[…]2,4-dinitrophenyl)-Arg-Arg-NH2 purchased from Peptide Institute (Osaka, Japan) as a substrate for BACE1. Recombinant human BACE-1 purchased from R&D systems (Minneapolis, Minn.) was used. To 40 μL of 62.5 mM 2-(N-morpholino)ethansulfonic acid (MES)-CH3COOH—NaOH buffer (pH 5.0), were added 1 μL of a solution of an inhibitor diluted with DMSO (100 μM), 4 μL of BACE1 (6.25 ng/μL), and 5 μL of an aqueous solution (50% DMSO) of 250 μM substrate (7-methoxycoumarin-4-yl)acetyl-[…]2,4-dinitrophenyl)-Arg-Arg-NH2 to initiate an enzyme reaction. After incubation at 37° C. for 60 minutes, 20 μL of 20% trichloroacetic acid was added to stop a reaction. Inhibition % was calculated by measuring a fluorescent intensity of the N-terminal fragment (Ex, 328 nm; Em, 393 nm) using reverse phase HPLC (linear gradient of MeCN in aqueous TFA; flow rate, 1.0 mL/min).
For `CC(C)C[C@H](NC(=O)[C@@H](NC(=O)[C@@H](N)CCC(=O)O)C(C)C)C(=O)N[C@@H](Cc1ccccc1)[C@@H](O)C(=O)N[C@@H](CC(=O)O)C(=O)N[C@@H](C)C(=O)NCc1ccc(C(=O)O)cc1` [Example 108] (H-EVL[β3hPhe(2R-OH)]DA[4Amb]-OH), the inhibition at 2 µM turned out to be 51.3%.
Still for that read-out and setting: next, `CC(C)[C@H](NC(=O)[C@@H](NC(=O)[C@@H](N)CCC(=O)O)C(C)C)C(=O)N[C@@H](Cc1ccccc1)[C@@H](O)C(=O)N[C@@H](CC(=O)O)C(=O)N[C@@H](C)C(=O)N[C@@H](CCC(=O)O)C(=O)N[C@@H](Cc1ccccc1)C(=O)O` [Example 123] (H-EVV[β3hPhe(2R-OH)]DAEF-OH): 61.4%.
On the same count and under the same terms, next, `CC(C)C[C@H](NC(=O)[C@@H](NC(=O)[C@@H](N)CNC(=O)c1nnn[nH]1)C(C)C)C(=O)N[C@@H](Cc1ccccc1)[C@@H](O)C(=O)Nc1cccc(C(N)=O)c1` [Example 124]: 97.3%; `CC(C)C[C@H](NC(=O)[C@@H](NC(=O)[C@@H](N)CNC(=O)C(=O)O)C(C)C)C(=O)N[C@@H](CC1CCCCC1)[C@@H](O)C(=O)Nc1cccc(C(=O)O)c1` [Example 126]: 98.9%; `CC(C)C[C@H](NC(=O)[C@@H](NC(=O)[C@@H](N)CNC(=O)c1nnn[nH]1)C(C)C)C(=O)N[C@@H](Cc1ccccc1)[C@@H](O)C(=O)Nc1cc(C(=O)O)cc(C(=O)O)c1` [Example 127]: 100%.
Still for that read-out and setting: the same measure for `Cc1c(NC(=O)[C@H](O)[C@H](Cc2ccccc2)NC(=O)[C@H](CC(C)C)NC(=O)[C@@H](NC(=O)[C@@H](N)CCC(=O)O)C(C)C)cccc1C(=O)O` [Example 128]: 53.6%; for `COc1cc(NC(=O)[C@H](O)[C@H](Cc2ccccc2)NC(=O)[C@H](CC(C)C)NC(=O)[C@@H](NC(=O)[C@@H](N)CCC(=O)O)C(C)C)cc(OC)c1` [Example 129]: 61%; for `CC(C)C[C@H](NC(=O)[C@@H](NC(=O)[C@@H](N)CCC(=O)O)C(C)C)C(=O)N[C@@H](Cc1ccccc1)[C@@H](O)C(=O)Nc1cccc(O)c1` [Example 130]: 57.2%.
Consider `CSC[C@H](NC(=O)[C@@H](NC(=O)[C@@H](N)CCC(=O)O)C(C)C)C(=O)N[C@@H](Cc1ccccc1)[C@@H](O)C(=O)Nc1cccc(C(=O)O)c1` [Example 131], for which the inhibition at 2 µM was found to be 74.1%.
For `CCSC[C@H](NC(=O)[C@@H](NC(=O)[C@@H](N)CCC(=O)O)C(C)C)C(=O)N[C@@H](Cc1ccccc1)[C@@H](O)C(=O)Nc1cccc(C(=O)O)c1` [Example 132], the inhibition at 2 µM stood at 68.1%.
On to `CC(C)C[C@H](NC(=O)[C@@H](NC(=O)[C@@H](N)CNC(=O)c1ccc(O)c(O)c1)C(C)C)C(=O)N[C@@H](Cc1ccccc1)[C@@H](O)C(=O)N[C@@H](CC(=O)O)C(=O)N[C@@H](C)C(=O)N[C@@H](CCC(=O)O)C(=O)O` [Example 133] (H-[Dap](X1)VL[β3hPhe(2R-OH)]DAE-OH), for which the inhibition at 100 µM (stock) is 71.5%.
Turning to `CC(C)[C@H](NC(=O)[C@@H](N)CNC(=O)C(=O)O)C(=O)N[C@@H](CC1CCCCC1)C(=O)N[C@@H](Cc1ccccc1)[C@@H](O)C(=O)Nc1cc(C(=O)O)cc(C(=O)O)c1` [Example 134], the inhibition at 2 µM worked out at 99.6%.
Same read-out and setting: next, `CC(C)[C@H](NC(=O)[C@@H](N)CNC(=O)c1nnn[nH]1)C(=O)N[C@@H](CC1CCCCC1)C(=O)N[C@@H](Cc1ccccc1)[C@@H](O)C(=O)Nc1cc(C(=O)O)cc(C(=O)O)c1` [Example 135]: 99.8%; `CC(C)[C@H](NC(=O)[C@@H](N)CNC(=O)c1nnn[nH]1)C(=O)N[C@@H](CC1CCCCC1)C(=O)N[C@@H](Cc1ccccc1)[C@@H](O)C(=O)Nc1cccc(C(=O)O)c1` [Example 137]: 99.5%; `CC(C)C[C@H](NC(=O)[C@@H](NC(=O)[C@@H](N)CCC(=O)O)C(C)C)C(=O)N[C@@H](Cc1ccccc1)[C@@H](O)C(=O)Nc1cccc(C(=O)OCC(F)(F)F)c1` [Example 138]: 59.6%.
The same measure, in the same setting: the same measure for `CCCC[C@H](NC(=O)[C@@H](NC(=O)[C@@H](N)CCC(=O)O)C(C)C)C(=O)N[C@@H](Cc1ccccc1)[C@@H](O)C(=O)Nc1cccc(C(=O)O)c1` [Example 141]: 67.5%; for `CC(C)C[C@H](NC(=O)[C@@H](NC(=O)[C@@H](N)CNC(=O)c1cc(=O)[nH]c(=O)[nH]1)C(C)C)C(=O)N[C@@H](Cc1ccccc1)[C@@H](O)C(=O)Nc1cccc(C(=O)O)c1` [Example 142]: 89.8%.
Same read-out and setting: the same measure for `CC(C)C[C@H](NC(=O)[C@@H](NC(=O)[C@@H](N)CNC(=O)c1ccc[nH]1)C(C)C)C(=O)N[C@@H](Cc1ccccc1)[C@@H](O)C(=O)Nc1cccc(C(=O)O)c1` [Example 143]: 69%.
For the compound `Cc1c(O)cccc1C(=O)NC[C@H](N)C(=O)N[C@H](C(=O)N[C@@H](CC(C)C)C(=O)N[C@@H](Cc1ccccc1)[C@@H](O)C(=O)Nc1cccc(C(=O)O)c1)C(C)C` [Example 145], the inhibition at 2 µM was found to be 50.5%.
Turning to `CC(C)C[C@H](NC(=O)[C@@H](NC(=O)C(N)CNC(=O)c1ccccc1O)C(C)C)C(=O)N[C@@H](Cc1ccccc1)[C@@H](O)C(=O)Nc1cccc(C(=O)O)c1` (some centres unmarked) [Example 146], the inhibition at 100 µM (stock) was found to be 74.7%.
`Cc1cccc(C(=O)NC[C@H](N)C(=O)N[C@H](C(=O)N[C@@H](CC(C)C)C(=O)N[C@@H](Cc2ccccc2)[C@@H](O)C(=O)Nc2cccc(C(=O)O)c2)C(C)C)c1O` [Example 147]: the inhibition at 2 µM is 59.5%.
As for `CC(C)C[C@H](NC(=O)[C@@H](NC(=O)[C@@H](N)CNC(=O)c1cc(O)cc(O)c1)C(C)C)C(=O)N[C@@H](Cc1ccccc1)[C@@H](O)C(=O)Nc1cccc(C(=O)O)c1` [Example 148], the inhibition at 100 µM (stock) turned out to be 93.8%.
Turning to `CC(C)C[C@H](NC(=O)[C@@H](NC(=O)[C@@H](N)CCC(=O)O)C(C)C)C(=O)N[C@@H](Cc1ccccc1)[C@@H](O)C(=O)Nc1cc(Cl)c(O)c(Cl)c1` [Example 149], the inhibition at 2 µM is 80.1%.
On the same count and under the same terms, next, `CC(C)C[C@H](NC(=O)[C@@H](NC(=O)[C@@H](N)CNC(=O)c1cccc(O)c1)C(C)C)C(=O)N[C@@H](Cc1ccccc1)[C@@H](O)C(=O)Nc1cccc(C(=O)O)c1` [Example 150]: 90.8%; `CC(C)C[C@H](NC(=O)[C@@H](NC(=O)[C@@H](N)CCC(=O)O)C(C)(C)C)C(=O)N[C@@H](Cc1ccccc1)[C@@H](O)C(=O)Nc1cccc(C(=O)O)c1` [Example 151]: 57%; `CC[C@H](C)[C@H](NC(=O)[C@@H](NC(=O)[C@@H](N)CCC(=O)O)C(C)C)C(=O)N[C@@H](Cc1ccccc1)[C@@H](O)C(=O)Nc1cccc(C(=O)O)c1` [Example 153]: 65.8%.
`CC(C)C[C@H](NC(=O)[C@@H](NC(=O)[C@@H](N)CNC(=O)c1ccc(O)cc1)C(C)C)C(=O)N[C@@H](Cc1ccccc1)[C@@H](O)C(=O)Nc1cccc(C(=O)O)c1` [Example 154]: the inhibition at 2 µM was determined as 69.9%.
Consider `CC(C)C[C@H](NC(=O)[C@@H](NC(=O)[C@@H](N)CCC(=O)O)C(C)C)C(=O)N[C@@H](Cc1ccccc1)[C@@H](O)C(=O)NC1CCCC(C(=O)O)C1` (some centres unmarked) [Example 155], for which the inhibition at 100 µM (stock) came out at 69.7%.
Turning to `CC(C)C[C@H](NC(=O)[C@@H](NC(=O)[C@@H](N)CCC(=O)O)C(C)C)C(=O)N[C@@H](Cc1ccccc1)[C@@H](O)C(=O)Nc1cc(Cl)cc(Cl)c1` [Example 156], the inhibition at 100 µM (stock) was found to be 78.3%.
As to `CCOC(=O)COc1c(Cl)cc(NC(=O)[C@H](O)[C@H](Cc2ccccc2)NC(=O)[C@H](CC(C)C)NC(=O)[C@@H](NC(=O)[C@@H](N)CCC(=O)O)C(C)C)cc1Cl` [Example 158], the inhibition at 2 µM was 66.1%.
On the same count and under the same terms, next, `CC(C)[C@H](NC(=O)[C@@H](N)CCC(=O)O)C(=O)N[C@@H](Cc1cc2ccccc2[nH]1)C(=O)N[C@@H](Cc1ccccc1)[C@@H](O)C(=O)Nc1cccc(C(=O)O)c1` [Example 160]: 71.3%.
Consider `CCC[C@H](NC(=O)[C@@H](NC(=O)[C@@H](N)CCC(=O)O)C(C)C)C(=O)N[C@@H](Cc1ccccc1)[C@@H](O)C(=O)Nc1cccc(C(=O)O)c1` [Example 161], for which the inhibition at 2 µM came to 64.7%.
